In PubChem BioAssay AID1259407 (Chemical Carcinogenesis Research Information System (CCRIS), 2018):
The source made the active and inactive calls. How the calls were made is not given here.

Test system: CCRIS mutagenicity, Ames/micronucleus/aberration tests
Assay: CCRIS mutagenicity studies
[1] = Test System: AMES SALMONELLA TYPHIMURIUM, Strain/Indicator: TA98, Metabolic Activation: NONE, Method: STANDARD PLATE
[2] = Test System: AMES SALMONELLA TYPHIMURIUM, Strain/Indicator: TA100, Metabolic Activation: NONE, Method: STANDARD PLATE
[3] = Test System: AMES SALMONELLA TYPHIMURIUM, Strain/Indicator: TA1535, Metabolic Activation: NONE, Method: STANDARD PLATE
[4] = Test System: AMES SALMONELLA TYPHIMURIUM, Strain/Indicator: TA1537, Metabolic Activation: NONE, Method: STANDARD PLATE

Measured: mutagenic call

N[C@@H](CSCc1ccccc1)C(=O)O
inactive: Test System: AMES SALMONELLA TYPHIMURIUM, Strain/Indicator: TA98, Metabolic Activation: NONE, Method: PREINCUBATION inactive; negative | Test System: AMES SALMONELLA TYPHIMURIUM, Strain/Indicator: TA98, Metabolic Activation: RAT, LIVER OR KIDNEY, MICROSOMES, Method: PREINCUBATION inactive; negative | Test System: AMES SALMONELLA TYPHIMURIUM, Strain/Indicator: TA100, Metabolic Activation: NONE, Method: PREINCUBATION inactive; negative | Test System: AMES SALMONELLA TYPHIMURIUM, Strain/Indicator: TA100, Metabolic Activation: RAT, LIVER OR KIDNEY, MICROSOMES, Method: PREINCUBATION inactive; negative | Test System: AMES SALMONELLA TYPHIMURIUM, Strain/Indicator: TA102, Metabolic Activation: NONE, Method: PREINCUBATION inactive; negative | Test System: AMES SALMONELLA TYPHIMURIUM, Strain/Indicator: TA102, Metabolic Activation: RAT, LIVER OR KIDNEY, MICROSOMES, Method: PREINCUBATION inactive; negative | Test System: AMES SALMONELLA TYPHIMURIUM, Strain/Indicator: TA2638, Metabolic Activation: NONE, Method: PREINCUBATION inactive; negative | Test System: AMES SALMONELLA TYPHIMURIUM, Strain/Indicator: TA2638, Metabolic Activation: RAT, LIVER OR KIDNEY, MICROSOMES, Method: PREINCUBATION inactive; negative

CC1(C)C(C=C(Cl)Cl)C1C(=O)OC(C#N)c1cccc(Oc2ccccc2)c1 (stereo unspecified)
inactive: Test System: AMES SALMONELLA TYPHIMURIUM, Strain/Indicator: TA97, Metabolic Activation: BARLEY, HOMOGENATES, Method: STANDARD PLATE inactive; negative | Test System: AMES SALMONELLA TYPHIMURIUM, Strain/Indicator: TA97, Metabolic Activation: NONE, Method: STANDARD PLATE inactive; negative | Test System: AMES SALMONELLA TYPHIMURIUM, Strain/Indicator: TA97, Metabolic Activation: RAT, LIVER, S-9, DELOR 103, Method: STANDARD PLATE inactive; negative | Test System: AMES SALMONELLA TYPHIMURIUM, Strain/Indicator: TA98, Metabolic Activation: BARLEY, HOMOGENATES, Method: STANDARD PLATE inactive; negative | [1] inactive; negative | Test System: AMES SALMONELLA TYPHIMURIUM, Strain/Indicator: TA98, Metabolic Activation: RAT, LIVER, S-9, AROCLOR 1254, Method: STANDARD PLATE inactive; negative | Test System: AMES SALMONELLA TYPHIMURIUM, Strain/Indicator: TA98, Metabolic Activation: RAT, LIVER, S-9, DELOR 103, Method: STANDARD PLATE inactive; negative | Test System: AMES SALMONELLA TYPHIMURIUM, Strain/Indicator: TA100, Metabolic Activation: BARLEY, HOMOGENATES, Method: STANDARD PLATE inactive; negative | [2] inactive; negative | Test System: AMES SALMONELLA TYPHIMURIUM, Strain/Indicator: TA100, Metabolic Activation: RAT, LIVER, S-9, AROCLOR 1254, Method: STANDARD PLATE inactive; negative | Test System: AMES SALMONELLA TYPHIMURIUM, Strain/Indicator: TA100, Metabolic Activation: RAT, LIVER, S-9, DELOR 103, Method: STANDARD PLATE inactive; negative | Test System: AMES SALMONELLA TYPHIMURIUM, Strain/Indicator: TA1535, Metabolic Activation: BARLEY, HOMOGENATES, Method: STANDARD PLATE inactive; negative | [3] inactive; negative | Test System: AMES SALMONELLA TYPHIMURIUM, Strain/Indicator: TA1535, Metabolic Activation: RAT, LIVER, S-9, AROCLOR 1254, Method: STANDARD PLATE inactive; negative | Test System: AMES SALMONELLA TYPHIMURIUM, Strain/Indicator: TA1535, Metabolic Activation: RAT, LIVER, S-9, DELOR 103, Method: STANDARD PLATE inactive; negative | [4] inactive; negative | Test System: AMES SALMONELLA TYPHIMURIUM, Strain/Indicator: TA1537, Metabolic Activation: RAT, LIVER, S-9, AROCLOR 1254, Method: STANDARD PLATE inactive; negative | Test System: AMES SALMONELLA TYPHIMURIUM, Strain/Indicator: TA1538, Metabolic Activation: NONE, Method: STANDARD PLATE inactive; negative | Test System: AMES SALMONELLA TYPHIMURIUM, Strain/Indicator: TA1538, Metabolic Activation: RAT, LIVER, S-9, DELOR 103, Method: STANDARD PLATE inactive; negative | Test System: CHINESE HAMSTER V-79, Strain/Indicator: V-79/6-THIOGUANINE, Metabolic Activation: NONE, Method: STANDARD PLATE inactive; negative | Test System: CHINESE HAMSTER V-79, Strain/Indicator: V-79/6-THIOGUANINE, Metabolic Activation: RAT HEPATOCYTES, Method: STANDARD PLATE inactive; negative | Test System: CHINESE HAMSTER V-79, Strain/Indicator: V-79/OUABAIN, Metabolic Activation: NONE, Method: STANDARD PLATE inactive; negative | Test System: CHINESE HAMSTER V-79, Strain/Indicator: V-79/OUABAIN, Metabolic Activation: RAT HEPATOCYTES, Method: STANDARD PLATE inactive; negative | Test System: E. COLI, Strain/Indicator: WP2, Metabolic Activation: NONE, Method: STANDARD PLATE inactive; negative | Test System: E. COLI, Strain/Indicator: WP2, Metabolic Activation: RAT, LIVER, S-9, AROCLOR 1254, Method: STANDARD PLATE inactive; negative

Nc1ccc2c(=O)[nH]sc2c1
inactive: [1] inactive; negative | Test System: AMES SALMONELLA TYPHIMURIUM, Strain/Indicator: TA98, Metabolic Activation: S-9, Method: STANDARD PLATE inactive; negative | [2] inactive; negative | Test System: AMES SALMONELLA TYPHIMURIUM, Strain/Indicator: TA100, Metabolic Activation: S-9, Method: STANDARD PLATE inactive; negative | [3] inactive; negative | Test System: AMES SALMONELLA TYPHIMURIUM, Strain/Indicator: TA1535, Metabolic Activation: S-9, Method: STANDARD PLATE inactive; negative | [4] inactive; negative | Test System: AMES SALMONELLA TYPHIMURIUM, Strain/Indicator: TA1537, Metabolic Activation: S-9, Method: STANDARD PLATE inactive; negative
